From ChEMBL document CHEMBL4190351, “Synthesis and biological evaluation of novel 6,11-dihydro-5H-benzo[e]pyrimido- [5,4-b][1,4]diazepine derivatives as potential c-Met inhibitors” (Eur J Med Chem, 2017)
pIC50: −log10 of the molar value.

Molecular target: Hepatocyte growth factor receptor (Homo sapiens, UniProt P08581)
Assay: Inhibition of cMet (unknown origin) using poly(Glu, Tyr)4:1 substrate and ATP incubated fro 60 mins by ELISA

Sequence of Hepatocyte growth factor receptor (P08581 whole entry): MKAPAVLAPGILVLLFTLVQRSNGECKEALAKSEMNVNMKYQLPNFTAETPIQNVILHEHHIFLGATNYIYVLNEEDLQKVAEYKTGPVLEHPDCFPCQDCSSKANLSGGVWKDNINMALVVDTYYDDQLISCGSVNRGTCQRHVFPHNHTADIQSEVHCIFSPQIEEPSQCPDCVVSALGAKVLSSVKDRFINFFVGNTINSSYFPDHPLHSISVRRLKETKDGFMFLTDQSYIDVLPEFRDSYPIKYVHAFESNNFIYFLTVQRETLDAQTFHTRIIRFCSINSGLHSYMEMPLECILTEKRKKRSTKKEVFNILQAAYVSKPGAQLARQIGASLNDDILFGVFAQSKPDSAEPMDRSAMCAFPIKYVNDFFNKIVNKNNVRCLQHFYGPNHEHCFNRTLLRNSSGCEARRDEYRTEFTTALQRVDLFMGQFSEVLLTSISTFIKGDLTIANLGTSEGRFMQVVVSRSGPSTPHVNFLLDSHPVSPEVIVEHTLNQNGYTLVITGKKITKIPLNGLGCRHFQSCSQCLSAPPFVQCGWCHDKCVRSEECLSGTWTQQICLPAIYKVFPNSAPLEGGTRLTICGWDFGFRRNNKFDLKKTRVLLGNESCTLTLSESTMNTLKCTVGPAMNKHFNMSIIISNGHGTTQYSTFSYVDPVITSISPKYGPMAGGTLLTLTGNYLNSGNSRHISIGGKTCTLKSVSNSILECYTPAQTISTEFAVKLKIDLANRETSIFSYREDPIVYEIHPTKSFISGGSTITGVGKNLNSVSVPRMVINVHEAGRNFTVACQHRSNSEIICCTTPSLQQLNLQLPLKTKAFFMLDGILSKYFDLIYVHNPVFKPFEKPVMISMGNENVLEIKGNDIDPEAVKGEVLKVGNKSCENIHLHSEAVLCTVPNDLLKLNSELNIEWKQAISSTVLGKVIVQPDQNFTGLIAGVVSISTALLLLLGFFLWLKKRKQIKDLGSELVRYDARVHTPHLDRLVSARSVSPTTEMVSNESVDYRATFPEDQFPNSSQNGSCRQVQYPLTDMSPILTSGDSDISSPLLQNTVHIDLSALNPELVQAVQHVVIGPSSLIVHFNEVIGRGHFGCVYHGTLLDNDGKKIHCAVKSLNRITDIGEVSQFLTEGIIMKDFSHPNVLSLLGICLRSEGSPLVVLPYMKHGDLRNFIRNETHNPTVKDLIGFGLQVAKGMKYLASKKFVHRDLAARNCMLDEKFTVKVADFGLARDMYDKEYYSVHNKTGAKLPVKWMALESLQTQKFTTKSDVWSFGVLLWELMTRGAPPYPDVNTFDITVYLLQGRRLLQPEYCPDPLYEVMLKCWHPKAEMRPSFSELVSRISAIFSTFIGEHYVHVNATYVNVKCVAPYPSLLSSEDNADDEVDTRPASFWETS

Compound | pIC50
COc1cc2c(cc1OC)C(=O)Nc1c(ncnc1Oc1ccc(NC(=O)C3(C(=O)Nc4ccc(F)cc4)CC3)cc1)N2 | < 6.00
Cc1nc(Oc2ccc(NC(=O)C3(C(=O)Nc4ccc(F)cc4)CC3)cc2)c2c(n1)Oc1ccccc1CN2 | < 6.00
O=C(Nc1ccc(F)cc1)C1(C(=O)Nc2ccc(Oc3ncnc4c3N=Cc3ccccc3O4)cc2)CC1 | < 6.00
Cc1nc(Oc2ccc(NC(=O)C3(C(=O)Nc4ccc(F)cc4)CC3)cc2)c2c(n1)Oc1ccccc1C=N2 | < 6.00
COc1cc2c(cc1OC)Nc1ncnc(Oc3ccc(NC(=O)C4(C(=O)Nc5ccc(F)cc5)CC4)cc3)c1N(C)C2 | < 6.00
